In patent US20110136665A1:

Assays:
[1] = tested on: Leptosphaeria nodorum; test: Activity against Septoria nodorum blotch of wheat caused by Leptosphaeria nodorum
Method: (§1) The mixture was then made up with water to 100 ml.
The next day, the pots were inoculated with an aqueous spore suspension of Leptosphaeria nodorum (syn. Stagonospora nodorum, Septoria nodorum). The plants were then placed in a chamber at 20° C. and maximum atmospheric humidity.

[2] = tested on: Alternaria solani; test: Persistency against early blight on tomatoes caused by Alternaria solani, 5 day protective treatment; settings: tomato
Method: as §1
To test for persistency, the leaves were infected with an aqueous spore suspension of Alternaria solani in a 2% strength biomalt solution having a density of 0.17×10^6 spores/ml only after 5 days. The plants were then placed in a water-vapor-saturated chamber at temperatures between 20 and 22° C.
Evaluation was carried out analogously to Example 1.

Row | SMILES | Efficacy in % of the untrated control ([1]; 0.4 ppm in spray liquor) [%] | Efficacy in % of the untrated control ([1]; 0.8 ppm in spray liquor) [%] | Efficacy in % of the untrated control ([1]; 1.6 ppm in spray liquor) [%] | Efficacy in % of the untrated control ([2]; 0.8 ppm in spray liquor) [%] | Efficacy in % of the untrated control ([2]; 1.6 ppm in spray liquor) [%] | Efficacy in % of the untrated control ([2]; 3.1 ppm in spray liquor) [%] | Efficacy in % of the untrated control ([2]; 6.25 ppm in spray liquor) [%] | Efficacy in % of the untrated control ([2]; 25 ppm in spray liquor) [%] | Efficacy in % of the untrated control ([1]; 3.1 ppm in spray liquor) [%] | Efficacy in % of the untrated control ([1]; 12.5 ppm in spray liquor) [%]
1 | CC1(C)CCC(Cc2ccc(Cl)cc2)C1(O)Cn1cncn1 (stereo not drawn) [metconazole, 5-(4-chlorobenzyl)-2,2-dimethyl-1-[1,2,4]triazol-1-ylmethylcyclopentanol] | 0 | 0 | 56 | – | – | – | – | – | – | –
2 | Fc1ccc([C@]2(Cn3cncn3)O[C@H]2c2ccccc2Cl)cc1 (racemic) [epoxiconazole, (2RS,3SR)-1-[3-(2-chlorophenyl)-2,3-epoxy-2-(4-fluorophenyl)propyl]-1H-1,2,4-triazole] | 0 | 0 | 33 | 0 | 0 | 0 | 0 | 0 | – | –
3 | O=C(Nc1ccccc1-c1ccc(Cl)cc1)c1cccnc1Cl [boscalid, 2-chloro-N-(4′-chlorobiphenyl-2-yl)nicotinamide] | – | – | 0 | – | – | – | 0 | – | 11 | 33
